The text below walks through data of US20120015907A1, “Furopyridine compounds and uses thereof” (NOVARTIS AG, priority 2010, published 2012).

As usually defined, the IC50 is the point on the concentration scale where inhibition reaches its midpoint.

Experiment [1] relates to HCV replicon I389luc-ubi-neo/NS3-3'/ET in ET (Huh-lucubineo-ET) cells. Description: Replicon assay (Biological Example 2), luciferase read-out. The conditions noted are these: Hepatitis C virus, luciferase activity 48 hours after compound addition. It counts as cell-based. The method, then:
A cell line, ET (Huh-lucubineo-ET) is used for screening of compounds for inhibiting HCV RNA dependent RNA polymerase. The ET cell line is stably transfected with RNA transcripts harboring a I389luc-ubi-neo/NS3-3′/ET; replicon with firefly luciferase-ubiquitin-neomycin phosphotransferase fusion protein and EMCV-IRES driven NS3-5B polyprotein containing the cell culture adaptive mutations (E1202G; […]; K1846T) (Krieger at al, 2001 and unpublished). The ET cells are grown in DMEM (Dulbeco's Modified Eagle's Medium), supplemented with 10% fetal calf serum, 2 mM Glutamine, Penicillin (100 IU/mL)/Streptomycin (100 μg/mL), 1× nonessential amino acids, and 250 μg/mL G418 (“Geneticin”). Reagents are all available through Life Technologies (Bethesda, Md.). The cells are plated at 0.5-1.0×10^4 cells/well in the 96 well plates and incubated for 24 hrs before adding test compound. The compounds are added to the cells to achieve a final concentration of 0.1 nM to 50 μM and a final DMSO (dimethylsulfoxide) concentration of 0.5%. Luciferase activity is measured 48 hours later by adding a lysis buffer and the substrate (Catalog number Glo-lysis buffer E2661 and Bright-Glo luciferase system E2620 Promega, Madison, Wis.). Cells should not be too confluent during the assay. Percent inhibition of replication data is plotted relative to no compound control. To determine the EC50 (effective concentration at which 50% of the maximum inhibition is observed), a 10 point, 3-fold serial dilution for each compound is used, which spans a concentration range of 1000 fold. EC50 values were calculated by fitting % inhibition at each concentration to the following equation:
% inhibition=100%/[(EC50/[I])^b+1]
where b is Hill's coefficient.

The target of experiment [2] is T1, HCV polymerase (Hepatitis C virus genotype 1b, UniProt Q9WMX2).
T1 construct: (His)6 (C)
In words: biochemical. The note with it: polymerase assay of Biological Example 1; read-out: NS5B polymerase IC50.

As to `CCc1cc2c(C(=O)NC)c(-c3ccc(F)cc3)oc2nc1N(CCCCC(C)=O)S(C)(=O)=O` [Example 22.92, 5-ethyl-2-(4-fluorophenyl)-N-methyl-6-(N-(5-oxohexyl)methylsulfonamido)furo[2,3-b]pyridine-3-carboxamide], the IC50 was ≤ 100 nM in experiment [1] and 32 nM in experiment [2].
On to `CNC(=O)c1c(-c2ccc(F)cc2)oc2nc(N(CCCOCCOC)S(C)(=O)=O)c(C3CC3)cc12` [Example 25, 5-cyclopropyl-2-(4-fluorophenyl)-6-(N-(3-(2-methoxyethoxy)propyl)methylsulfonamido)-N-methylfuro[2,3-b]pyridine-3-carboxamide], for which the concentration for half-maximal inhibition (IC50) was ≤ 100 nM in experiment [1] and 5 nM in experiment [2].
Turning to `CNC(=O)c1c(-c2ccc(C)cc2)oc2nc(N(CCCCC(=O)OC)S(C)(=O)=O)c(C3CC3)cc12` [Example 25.2, methyl 5-(N-(5-cyclopropyl-3-(methylcarbamoyl)-2-p-tolylfuro[2,3-b]pyridin-6-yl)methylsulfonamido) pentanoate], the IC50 in experiment [1] was ≤ 100 nM; in experiment [2], 3 nM.
The corresponding values for `CNC(=O)c1c(-c2ccc(F)cc2)oc2nc(N(CCCCS(C)(=O)=O)S(C)(=O)=O)c(I)cc12` [Example 18.997, 2-(4-fluorophenyl)-5-iodo-N-methyl-6-(N-(4-(methylsulfonyl)butyl)methylsulfonamido)furo[2,3-b]pyridine-3-carboxamide] are ≤ 100 nM and 22 nM.
In the case of `C=Cc1cc2c(C(=O)NC)c(-c3ccc(F)cc3)oc2nc1N(C)S(C)(=O)=O` [Example 2.1, 2-(4-fluorophenyl)-N-methyl-6-(N-methylmethylsulfonamido)-5-vinylfuro[2,3-b]pyridine-3-carboxamide], the IC50 was ≤ 100 nM in experiment [1] and 12 nM in experiment [2].
For the compound `CCc1cc2c(C(=O)NC)c(-c3ccc(F)cc3)oc2nc1N(CCCC(C)=O)S(C)(=O)=O` [Example 22.95, 5-ethyl-2-(4-fluorophenyl)-N-methyl-6-(N-(4-oxopentyl)methylsulfonamido)furo[2,3-b]pyridine-3-carboxamide], the values for the IC50 in experiment [1] and in experiment [2] were ≤ 100 nM and 40 nM, respectively.
For `CNC(=O)c1c(-c2ccc(Cl)cc2)oc2nc(N(CCC[C@@H]3CCCS3(=O)=O)S(C)(=O)=O)c(C3CC3)cc12` [Example 24.8, 2-(4-Chloro-phenyl)-5-cyclopropyl-6-{[3-((R)-1,1-dioxo-tetrahydrothiophen-2-yl)-propyl]-methanesulfonyl-amino}-furo[2,3-b]pyridine-3-carboxylic acid methylamide] the same measures were ≤ 100 nM and 1 nM.
The corresponding values for `CNC(=O)c1c(-c2ccc(F)cc2)oc2nc3c(cc12)C(C)CCCCN3S(C)(=O)=O` (stereo not shown) [Example 36.3, 2-(4-Fluoro-phenyl)-10-methanesulfonyl-5-methyl-5,6,7,8,9,10-hexahydro-1-oxa-10,11-diaza-cycloocta[f]indene-3-carboxylic acid methylamide] are ≤ 100 nM and 70 nM.
The corresponding values for `CNC(=O)c1c(-c2ccc(F)cc2)oc2nc(N(C)S(C)(=O)=O)c(CCCCS(=O)(=O)CCC(=O)O)cc12` [Example 4.91, 3-(4-(2-(4-fluorophenyl)-3-(methylcarbamoyl)-6-(N-methylmethylsulfonamido)furo[2,3-b]pyridin-5-yl)butylsulfonyl)propanoic acid] are ≥ 5000 nM and 10 nM.
`CNC(=O)c1c(-c2ccc(F)cc2)oc2nc(N(C)S(C)(=O)=O)c(CCCCC(=O)N3CCC[C@H]3C(=O)O)cc12` [Example 4.7, (S)-1-(5-(2-(4-fluorophenyl)-3-(methylcarbamoyl)-6-(N-methylmethylsulfonamido)furo[2,3-b]pyridin-5-yl)pentanoyl)pyrrolidine-2-carboxylic acid]: the IC50 was ≥ 5000 nM in experiment [1] and 51 nM in experiment [2].
With `C=CCCN(CCCN(c1nc2oc(-c3ccc(F)cc3)c(C(=O)NC)c2cc1I)S(C)(=O)=O)S(C)(=O)=O` [Example 23.994, 6-(N-(3-(N-(but-3-enyl)methylsulfonamido)propyl)methylsulfonamido)-2-(4-fluorophenyl)-5-iodo-N-methylfuro[2,3-b]pyridine-3-carboxamide], the IC50 in experiment [1] was ≤ 100 nM; in experiment [2], 57 nM.
For the compound `CNC(=O)c1c(-c2ccc(F)cc2)oc2nc(N(CCCC3CCCS3(=O)=O)S(C)(=O)=O)c(I)cc12` (stereo not shown) [Example 18.97, 6-{[3-(1,1-Dioxo-tetrahydrothiophen-2-yl)-propyl]-methanesulfonyl-amino}-2-(4-fluoro-phenyl)-5-iodo-furo[2,3-b]pyridine-3-carboxylic acid methylamide], the IC50 in experiment [1] was ≤ 100 nM; in experiment [2], 32 nM.
The corresponding values for `CNC(=O)c1c(-c2ccc(Cl)cc2)oc2nc(N(CCCS(C)(=O)=O)S(C)(=O)=O)c(C3CC3)cc12` [Example 25.5, 2-(4-chlorophenyl)-5-cyclopropyl-N-methyl-6-(N-(3-(methylsulfonyl)propyl)methylsuIfonamido)furo[2,3-b]pyridine-3-carboxamide] are ≤ 100 nM and 1 nM.
On to `CNC(=O)c1c(-c2ccc(Cl)cc2)oc2nc(N(CCCCS(C)(=O)=O)S(C)(=O)=O)c(C3CC3)cc12` [Example 25.8], for which the IC50 in experiment [1] is ≤ 100 nM; in experiment [2], 1 nM.
The corresponding values for `CCc1cc2c(C(=O)NC)c(-c3ccc(F)cc3)oc2nc1N(CCCC1CCCS1(=O)=O)S(C)(=O)=O` (racemic) [Example 22.98, 6-{[3-(1,1-Dioxo-tetrahydro-1lambdathiophen-2-yl)-propyl]-methanesulfonyl-amino}-5-ethyl-2-(4-fluoro-phenyl)-furo[2,3-b]pyridine-3-carboxylic acid methylamide] are ≤ 100 nM and 11 nM.
As for `CNC(=O)c1c(-c2ccc(Oc3ccc(F)cc3)cc2)oc2nc(N(CCCCC(=O)O)S(C)(=O)=O)c(C3CC3)cc12` [Example 27.2, 5-(N-(5-cyclopropyl-2-(4-(4-fluorophenoxy)phenyl)-3-(methylcarbamoyl)furo[2,3-b]pyridin-6-yl)methylsulfonamido) pentanoic acid], the IC50 in experiment [1] was ≤ 100 nM; in experiment [2] it was 1 nM.
Consider `CNC(=O)c1c(-c2ccc(F)cc2)oc2nc(N(CCCCCS(C)(=O)=O)S(C)(=O)=O)c(C3CC3)cc12` [Example 26.2, 5-cyclopropyl-2-(4-fluorophenyl)-N-methyl-6-(N-(5-(methylsulfonyl)pentyl)methylsulfonamido) furo[2,3-b]pyridine-3-carboxamide], for which the half-maximal inhibitory concentration (IC50) was ≤ 100 nM in experiment [1] and 4 nM in experiment [2].
The corresponding values for `CNC(=O)c1c(-c2ccc(C)cc2)oc2nc(N(CCC3CCS(=O)(=O)C3)S(C)(=O)=O)c(C3CC3)cc12` (stereo not shown) [Example 26.1, 5-Cyclopropyl-6-{[2-(1,1-dioxo-tetrahydro-thiophen-3-yl)-ethyl]-methanesulfonyl-amino}-2-p-tolyl-furo[2,3-b]pyridine-3-carboxylic acid methylamide] are ≤ 100 nM and 1 nM.
The corresponding values for `CCc1cc2c(C(=O)NC)c(-c3ccc(F)cc3)oc2nc1N(CCCS(C)(=O)=O)S(C)(=O)=O` [Example 21.992, 5-ethyl-2-(4-fluorophenyl)-N-methyl-6-(N-(3-(methylsulfonyl)propyl)methylsulfonamido)furo[2,3-b]pyridine-3-carboxamide] are ≤ 100 nM and 65 nM.
The corresponding values for `CNC(=O)c1c(-c2ccc(C)cc2)oc2nc(N(CCCS(C)(=O)=O)S(C)(=O)=O)c(C3CC3)cc12` [Example 25.3, 5-cyclopropyl-N-methyl-6-(N-(3-(methylsulfonyl)propyl)methylsulfonamido)-2-p-tolylfuro[2,3-b]pyridine-3-carboxamide] are ≤ 100 nM and 1 nM.
In the case of `CCc1cc2c(C(=O)NC)c(-c3ccc(F)cc3)oc2nc1N(CCCC1C(=O)CCS1(=O)=O)S(C)(=O)=O` (stereo not shown) [Example 23.99, 5-Ethyl-2-(4-fluoro-phenyl)-6-{methanesulfonyl-[3-(1,1,3-trioxo-tetrahydrothiophen-2-yl)-propyl]-amino}-furo[2,3-b]pyridine-3-carboxylic acid methylamide], the IC50 in experiment [1] is ≤ 100 nM; in experiment [2] it was 26 nM.
Regarding `CCc1cc2c(C(=O)NC)c(-c3ccc(F)cc3)oc2nc1N(CCCCN1CCC[C@H]1C(=O)O)S(C)(=O)=O` [Example 23.98, (S)-1-(4-(N-(5-ethyl-2-(4-fluorophenyl)-3-(methylcarbamoyl)furo[2,3-b]pyridin-6-yl)methylsulfonamido)butyl) pyrrolidine-2-carboxylic acid], the IC50 in experiment [1] is ≥ 5000 nM; in experiment [2], 166 nM.
The corresponding values for `CNC(=O)c1c(-c2ccc(Cl)cc2F)oc2nc(N(C)S(C)(=O)=O)c(C3CC3)cc12` [Example 2.97] are ≤ 100 nM and 4 nM.
